Format in all cases: cell-based
The target in one assay is hERG (Homo sapiens (Human), UniProt Q12809). Description: hERG test, patch clamp on CHO-K1 cells. Particulars: CHO-K1 cells transfected with the hERG gene. The source says: In the table below, the median inhibitory concentrations IC50 for the compounds belonging to formula (I) according to the invention have been given in accordance with the hERG test.
The hERG test makes it possible to study a gene which codes for a protein required for the functioning of heart tissue potassium channels. The patch clamp method on CHO-K1 cells (cells transfected with the hERG gene which has K+ ion activity on the membranes) is used for in vitro prediction of the blocking of hERG (human Ether-a-go-go Related).
The extracellular solution (control) is applied first. The cells (Chinese hamster ovarian cells expressing the Human Ether-a-go-go Related Gene) are stabilized with the extracellular solution for 5 minutes. The cells are incubated for 5 minutes with the molecules from the weakest to the strongest concentration at 0.6% DMSO final.
The result is expressed in the form of an IC50 value in μM.
A general note: The hERG channel carries a current that helps repolarise heart muscle cells.

Assay [1] concerns IL-17A secretion by CD4+ cells. Description: IL-17A secretion by CD4+ cells (HTRF). As to conditions: 96 h; human CD4+ cells activated with anti-CD3 and anti-CD28, 4 days of incubation; read-out: IC50 hCD4/IL17. As to the method:
This model allows measurement of the effect of inhibitors on IL-17A secretion by CD4+ cells. […] The amount of IL-17a secreted is measured by the TR-FRET (kit HTRF® Human Interleukin 17A (Cisbio, #64H17PEC)) technology.
The cells are rapidly thawed, resuspended in their culture medium (RPMI inactivated 10% FCS) supplemented with soluble anti-CD28 antibodies and seeded (100 000 cells/well) in 96-well plates precoated with anti-CD3 antibodies. The cells are then treated with the ranges of inhibitors to be tested (from 1000 nM to 0.05 nM, 0.1% DMSO). […] The IC50 values are calculated from a 4-parameter logistic model using the XLFit software (IDBS).
A general note: In TR-FRET formats the signal depends on donor and acceptor labels being close together.

Assay [2] addresses ROR gamma ligand-binding domain (hRORg) (Homo sapiens (Human), UniProt P51449). Description: GAL4-RORγ transactivation (luciferase reporter, HG5LN HeLa line). Particulars: 18 hours incubation. The gist of the method:
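HeLa-derived HG5LN cells stably expressing GAL4 DBD fused to human RORγ LBD with GAL4-driven luciferase reporter; inhibition of constitutive activity lowers luminescence.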

Chain of hERG (Q12809 whole entry): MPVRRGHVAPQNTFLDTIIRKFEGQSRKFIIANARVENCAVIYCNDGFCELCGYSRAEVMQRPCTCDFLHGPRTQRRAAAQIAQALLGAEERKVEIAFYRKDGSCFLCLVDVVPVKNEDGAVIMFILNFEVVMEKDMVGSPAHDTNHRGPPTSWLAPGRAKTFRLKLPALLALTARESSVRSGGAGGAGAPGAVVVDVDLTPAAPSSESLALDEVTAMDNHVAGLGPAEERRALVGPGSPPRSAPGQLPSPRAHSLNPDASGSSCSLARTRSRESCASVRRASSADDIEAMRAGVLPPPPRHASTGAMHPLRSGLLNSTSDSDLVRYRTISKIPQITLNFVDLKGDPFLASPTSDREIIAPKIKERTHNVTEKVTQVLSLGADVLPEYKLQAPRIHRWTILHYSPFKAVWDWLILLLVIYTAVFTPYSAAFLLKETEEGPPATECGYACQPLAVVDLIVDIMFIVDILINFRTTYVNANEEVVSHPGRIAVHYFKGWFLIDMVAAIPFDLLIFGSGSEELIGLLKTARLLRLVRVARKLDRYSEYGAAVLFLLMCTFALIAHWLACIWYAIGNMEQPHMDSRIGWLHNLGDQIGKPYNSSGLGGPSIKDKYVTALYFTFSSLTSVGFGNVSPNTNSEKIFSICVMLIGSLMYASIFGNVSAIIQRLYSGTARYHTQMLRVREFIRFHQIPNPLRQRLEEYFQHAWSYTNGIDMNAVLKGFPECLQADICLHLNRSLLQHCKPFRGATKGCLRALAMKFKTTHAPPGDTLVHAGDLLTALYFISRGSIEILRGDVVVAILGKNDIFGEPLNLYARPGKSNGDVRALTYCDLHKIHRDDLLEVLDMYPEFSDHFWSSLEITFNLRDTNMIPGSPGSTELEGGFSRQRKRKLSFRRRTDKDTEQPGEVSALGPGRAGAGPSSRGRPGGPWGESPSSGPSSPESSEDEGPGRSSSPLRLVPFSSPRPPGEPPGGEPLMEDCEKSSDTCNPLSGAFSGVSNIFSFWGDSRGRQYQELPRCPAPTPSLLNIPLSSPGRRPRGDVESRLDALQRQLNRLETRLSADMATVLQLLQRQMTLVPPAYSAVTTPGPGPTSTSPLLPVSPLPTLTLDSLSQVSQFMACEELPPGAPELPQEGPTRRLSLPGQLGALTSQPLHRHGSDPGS
Chain of ROR gamma ligand-binding domain (hRORg) (P51449 269-508): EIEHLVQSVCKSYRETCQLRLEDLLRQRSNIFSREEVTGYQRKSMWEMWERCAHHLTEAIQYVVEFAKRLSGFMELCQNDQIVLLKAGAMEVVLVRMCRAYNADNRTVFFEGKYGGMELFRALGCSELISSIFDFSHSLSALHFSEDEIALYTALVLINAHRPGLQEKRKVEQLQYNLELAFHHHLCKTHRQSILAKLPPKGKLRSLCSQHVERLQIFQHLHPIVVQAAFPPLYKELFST

As to `CCc1ccc(N(CC(C)C)S(=O)(=O)c2ccc(N(C)CC3CCOCC3)c(S(C)(=N)=O)c2)cc1` (stereo not drawn) [compound 53, N-(4-ethylphenyl)-N-isobutyl-4-(methyl((tetrahydro-2H-pyran-4-yl)methyl)amino)-3-(S-methylsulfonimidoyl)benzenesulfonamide], the IC50 on hERG was 11.8 µM; in assay [1], < 0.1 µM.
The like results for `CCc1ccc(N(CC(C)C)S(=O)(=O)c2ccc(NCC3(C)CCOCC3)c(S(C)(=N)=O)c2)cc1` (stereo not drawn) [compound 55, N-(4-ethylphenyl)-N-isobutyl-3-(S-methylsulfonimidoyl)-4-(((4-methyltetrahydro-2H-pyran-4-yl)methyl)amino)benzenesulfonamide] were, in that order, 14.1 µM and < 0.1 µM.
With `CCc1ccc(N(CC(C)C)S(=O)(=O)c2ccc(NCC3CC(O)C3)c(S(C)(=N)=O)c2)cc1` (stereo not drawn) [compound 61, N-(4-ethylphenyl)-4-(((3-hydroxycyclobutyl)methyl)amino)-N-isobutyl-3-(S-methylsulfonimidoyl)benzenesulfonamide], the IC50 against hERG was 25.7 µM; in assay [2] it was < 0.1 µM; in assay [1], < 0.1 µM.
For `CCc1ccc(N(CC(C)C)S(=O)(=O)c2ccc(NCC3(F)CCOCC3)c(S(C)(=N)=O)c2)cc1` (stereo not drawn) [compound 62, N-(4-ethylphenyl)-4-(((4-fluorotetrahydro-2H-pyran-4-yl)methyl)amino)-N-isobutyl-3-(S-methylsulfonimidoyl)benzenesulfonamide], the IC50 was 16.4 µM against hERG and < 0.1 µM in assay [1].

Values taken from US10457637B2, “Benzenesulfonamide derivatives as inverse agonists of retinoid-related orphan receptor gamma (RORγ(T))” (GALDERMA RESEARCH & DEVELOPMENT, priority 2014, dated 2019).
